Assay results reported in patent US5375693A (Sepracor, Inc., priority 1994, dated 1994).

What was measured:
allergic rhinitis = conditions: compared with chlorpheniramine; cited from earlier work
[1] = cited from earlier work
[2] = in vivo; cited from earlier work
[3] = tested on: histamine induced lethality; conditions: guinea pig; cited from earlier work
[4] = tested on: airway resistance caused by LTD4 (leukotriene D4); conditions: guinea pigs; cited from earlier work
histamine H1 -receptor = histamine H1 -receptor (Bos taurus, UniProt P30546); experiment: biochemical; conditions: pH 7.5, read-out: Percent Inhibition
Sequence of histamine H1 -receptor (P30546 whole entry): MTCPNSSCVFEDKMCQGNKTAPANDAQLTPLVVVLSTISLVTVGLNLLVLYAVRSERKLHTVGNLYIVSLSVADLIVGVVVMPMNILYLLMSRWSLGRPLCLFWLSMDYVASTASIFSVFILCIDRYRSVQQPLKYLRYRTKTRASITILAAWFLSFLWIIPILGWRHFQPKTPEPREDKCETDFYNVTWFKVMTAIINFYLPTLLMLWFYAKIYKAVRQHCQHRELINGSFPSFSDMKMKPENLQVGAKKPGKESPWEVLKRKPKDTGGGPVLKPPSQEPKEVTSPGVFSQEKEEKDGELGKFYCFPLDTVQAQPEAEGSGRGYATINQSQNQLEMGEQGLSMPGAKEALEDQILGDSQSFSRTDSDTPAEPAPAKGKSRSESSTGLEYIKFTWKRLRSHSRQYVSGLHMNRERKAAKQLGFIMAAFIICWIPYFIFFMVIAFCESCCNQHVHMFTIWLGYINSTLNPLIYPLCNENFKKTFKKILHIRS
Description: 32:1653-1663 (1979). Briefly, membranes from bovine cerebellum were incubated with [^3 H]pyrilamine and varying concentrations of test compound. The reactions were carried out in 50 mM sodium phosphate buffer (pH 7.5) at 25° C. for 30 minutes. The reaction was terminated by rapid vacuum filtration onto glass fiber filters. Radioactivity trapped on the filters was determined and compared to control values to acertain the interaction of the test compound with the H1 -receptor.

| SMILES | clinical efficacy in allergic rhinitis (allergic rhinitis) | adverse effects: cardiac arrhythmias ([1]; administration to a human) | occurrence of cardiac arrhythmias ([1]; coadministration with other drugs such as ketoconazole and erythromycin or upon overdose) | sedation, gastrointestinal distress, dry mouth, and constipation or diarrhea ([1]; in vivo) | absorption [2] | metabolism [2] | protection against histamine induced lethality [3] | increase in airway resistance caused by LTD4 [4] | inhibition at 0.001 µM (histamine H1 -receptor) | inhibition at 0.1 µM (histamine H1 -receptor) | inhibition at 10 µM (histamine H1 -receptor) |
| --- | --- | --- | --- | --- | --- | --- | --- | --- | --- | --- | --- |
| CC(C)(C)c1ccc(C(O)CCCN2CCC(C(O)(c3ccccc3)c3ccccc3)CC2)cc1 (racemic) [Terfenadine] | slightly less effective than chlorpheniramine | cardiac arrhythmias, including ventricular tachyarrhythmias, torsades de pointes, and ventricular fibrillation | an increase in the occurrence of these cardiac arrhythmias | relatively less sedation, gastrointestinal distress, dry mouth, and constipation or diarrhea | well absorbed | extensively metabolized | protects against histamine induced lethality in the guinea pig | suppressed | – | – | – |
| CC(C)(C(=O)O)c1ccc([C@H](O)CCCN2CCC(C(O)(c3ccccc3)c3ccccc3)CC2)cc1 [R-(+)-terfenadine carboxylate] | – | – | – | – | – | – | – | – | 12.4% | 45.2% | 87.3% |
| CC(C)(C(=O)O)c1ccc([C@@H](O)CCCN2CCC(C(O)(c3ccccc3)c3ccccc3)CC2)cc1 [S-(-)-terfenadine carboxylate] | – | – | – | – | – | – | – | – | 8.1% | 54.1% | 88.7% |
